Tests used:
PC12 cells = assay: Toxicity at PC12 cells (MTT assay); assay type: cell-based
Procedure: The results shown are the mean±S.D of three independent experiments in triplicate.
In this study, the toxicity of APCPP-γ-S, at 1-1000 μM, at PC12 cells was tested by MTT assay. […] At 1000 μM, 75% of the cells were still viable.

human P2Y1-R = target: T1, human P2Y1-R (Homo sapiens, UniProt P47900); assay: [Ca^2+]i response of 1321N1 astrocytoma cells expressing P2Y1-R GFP; assay type: cell-based; conditions: for EC50: agonist, read-out: EC50 at the P2Y1 receptor
T1 construct: expressed in transfected cells; host or cells: 1321N1 astrocytoma cells
T1 sequence (P47900 whole entry): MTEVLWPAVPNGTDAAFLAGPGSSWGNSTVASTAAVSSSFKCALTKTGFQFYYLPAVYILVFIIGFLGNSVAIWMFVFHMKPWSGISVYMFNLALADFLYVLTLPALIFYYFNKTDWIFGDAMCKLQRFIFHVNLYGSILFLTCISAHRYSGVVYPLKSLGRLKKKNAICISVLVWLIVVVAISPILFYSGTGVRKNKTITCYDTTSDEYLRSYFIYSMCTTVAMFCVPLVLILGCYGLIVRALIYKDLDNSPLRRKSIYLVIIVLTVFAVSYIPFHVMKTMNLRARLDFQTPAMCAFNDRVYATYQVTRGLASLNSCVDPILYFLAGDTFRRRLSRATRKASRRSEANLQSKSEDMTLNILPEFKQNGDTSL
Procedure: GFP constructs of human P2Y2-R, P2Y1-R and P2Y11-R were stably expressed in 1321N1 astrocytoma cells, which lack endogenous expression of P2X- and P2Y-receptors. The respective cDNA of the receptor gene was cloned into a pEGFPN1 vector and after transfection, using FuGENE 6 Transfection Reagent (Roche Molecular Biochemicals, Mannheim, Germany), cells were selected with 0.5 mg/ml G418 (geneticine; Merck Chemicals, Darmstadt, Germany) and grown in DMEM supplemented with 10% serum (FCS), 100 U/ml penicillin and 100 U/ml streptomycin at 37° C. and 5% CO2. The expression and cell membrane localization of the respective P2Y receptors was confirmed through the analysis of the GFP fluorescence. The functionality of the expressed GFP-labeled receptor in cells was verified by recording a change of [Ca^2+]i after stimulation with the appropriate receptor agonist.
1321N1 astrocytoma cells transfected with the respective plasmid for P2Y-R-GFP expression plated on coverslips (22 mm diameter) and grown to approximately 80% density, were incubated with 2 μM fura 2/AM and 0.02% pluronic acid in Na-HBS buffer (Hepes buffered saline: 145 mM NaCl, 5.4 mM KCl, 1.8 mM CaCl2, 1 mM MgCl2, 25 mM glucose, 20 mM Hepes/Tris pH 7.4) for 30 min at 37° C. The cells were superfused (1 ml/min, 37° C.) with different concentrations of nucleotide in Na-HBS buffer. The nucleotide-induced change of [Ca^2+] was monitored by detecting the fluorescence intensities with excitations at 340 nm and 380 nm. Only GFP-labeled cells were analyzed. Microsoft Excel (Microsoft Corp., Redmond, Wash., USA) and SigmaPlot (SPSS Inc., Chicago, Ill., USA) were used to derive the concentration-response curves and EC50 values from the average response amplitudes obtained in at least three independent experiments (Ecke et al., 2006; Ecke et al., 2008). Only cells with a clear GFP-signal and with the typical calcium response kinetics upon agonist pulse application were included in the data analysis. The nucleotide induced change of [Ca^2+]i was monitored by detecting the respective emission intensity of fura 2/AM at 510 nm with 340 nm and 380 nm excitations (Ubl et al., 1998). The average maximal amplitude of the responses and the respective standard errors were calculated from ratio of the fura 2/AM. The GFP-tagged P2Y receptors are suitable for pharmacological and physiological studies, as previously reported (Tulapurkar et al., 2004; Tulapurkar et al., 2006; Zylberg et al., 2007).

Aβ40-Cu^2+ aggregates = target: T2, Aβ40-Cu^2+ aggregates (Homo sapiens, UniProt P05067); assay: DLS, size reduction of Aβ40-Cu^2+ aggregates
T2 construct: purchased GL-Biochem (Shanghai)
T2 sequence (P05067 672-711 limits assumed): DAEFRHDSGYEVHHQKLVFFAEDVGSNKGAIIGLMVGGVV
Procedure: PBS buffer, Aβ40, chelator, Zn(NO3)2, and Cu(NO3)2 solutions were filtered through a […] PVDF syringe filter. 496 μM Aβ40 solution in 10 mM PBS (pH 7.4) and 2 mM Zn(NO3)2 solution were mixed to obtain 200 μM Aβ40-Zn^2+ (1:1 ratio) of a cloudy solution. Similarly, 2 mM Cu(NO3)2 solution was added to 496 μM Aβ40 in 10 mM PBS (pH 6.6). Aβ40-Zn^2+/Cu^2+ (10 μl) solution was transferred to Eppendorf tubes containing 10 mM PBS buffer (64 or 67 μl) followed by the addition of 3 and 6 eq of 2 mM nucleotide (6 or 3 μl) solution and incubation for 45 min at RT. The resulting mixture was incubated for another 30 min at RT and DLS data were then collected in a 70 μl disposable cuvette. The final sample concentrations were 25 μM Aβ40, 25 μM Zn^2+ or Cu^2+, and 150 or 75 μM nucleotide.
Monomeric Aβ40 was incubated with either Cu^2+ or Zn^2+ for 45 min to form a 1:1 peptide metal-ion complex. […] For the Aβ40-Zn^2+ particles the instrument readings indicated a different size distribution. […] We evaluated the capacity of the phosphorothioate analogues to dissolve Aβ40-Cu^2+ or Zn^2+ aggregates, as compared to EDTA and clioquinol known for their ability to dissolve Aβ-M^2+ aggregates (Ritchie et al., 2003; Huang et al., 1997). The reduction of dH of Aβ40-Cu^2+ aggregates by EDTA, clioquinol, or tested compounds was compared to the dH of Aβ-Cu^2+ aggregate itself (FIG. 5A). In addition, the efficacy of the chelators ATP-γ-S, ADP-β-S, APCPP-γ-S and GDP-β-S to resolubilize Aβ40-Cu^2+ and Aβ40-Zn^2+ is described in FIGS. 5B and 5C relative to EDTA and clioquinol. EDTA efficiency in reducing Aβ particle size is considered as 100%.

[1] = Chemical stability (acid, base, air-oxidation) monitored by 31P-NMR; assay type: physicochemical; conditions: for stability: pD=1 as printed, two weeks
Procedure: In order to study and evaluate the chemical stability of adenosine-5′-tetrathio bisphosphonate and di-adenosine 5′,5″-tetrathiobisphosphonate to basic and acidic condition, as well as to air-oxidation, kinetic measurements were performed by monitoring the changes in the percentage of these amalogues, using ^31P-NMR (FIGS. 16-18).
The evaluation of the stability of adenosine-5′-tetrathio bisphosphonate by ^31P-NMR was first conducted at pD=1.5 for four days. In the course of the experiment, new signals emerged in ^31P-NMR spectra at 104.4, 92.3, 89.2, 86.1, 67.8 ppm and the percentage of starting material was obtained from the ratio of integration between the starting material and the total peaks in the spectrum.
Next, we studied the stability of adenosine-5′-tetrathio bisphosphonate under basic conditions, pD=11. […] After two weeks, the ^31P-NMR spectrum was identical to the starting material, without any indication of decomposition. We associate this with the repulsion between the negative charges of the tetrathio-bisphosphonate moiety in adenosine-5′-tetrathio bisphosphonate and OH^− ions. In addition, intramolecular nucleophilic attack and formation of disulfide bond are less likely to occur under these conditions.
Furthermore, we tested the stability of adenosine-5′-tetrathio bisphosphonate under air-oxidizing conditions, by performing ^31P-NMR measurements in an open rotating NMR tube. […] The MS and ^31P-NMR analysis of the freeze-dried sample of adenosine-5′-tetrathio bisphosphonate after 3 days indicated the formation of an intramolecularly oxidized product.

`Nc1ncnc2c1ncn2[C@@H]1O[C@H](COP(O)(=S)OP(=O)(O)C(Cl)(Cl)P(=O)(O)O)[C@@H](O)[C@H]1O` (single isomer, unassigned) [APPCCl2P-α-S, adenosine 5′-[Pα-thio]-β,γ-(dichloromethylene)triphosphate] showed a viable cells (PC12 cells; 100 μM) of 100%, a viable cells (PC12 cells; 1000 μM) of 75% and an EC50 (human P2Y1-R) greater than 10 µM.
In the case of `Nc1ncnc2c1ncn2[C@@H]1O[C@H](COP(=O)(O)OP(O)(O)=S)[C@@H](O)[C@H]1O` [ADP-β-S, adenosine 5′-[β-thio]diphosphate, reference compound], the “fold better than GDP-β-S in reducing dH of Aβ40-Cu^2+ aggregates” value (Aβ40-Cu^2+ aggregates) is reported as 5.4 fold.
In the case of adenosine-5′-tetrathiobisphosphonate, the stability [1] is reported as “completely stable even after two weeks” and the “stability under basic conditions” value ([1]; pD=11, two weeks) is reported as “highly stable”.
In the case of `Nc1ncnc2c1ncn2[C@@H]1O[C@H](COP(=O)(O)CP(=O)(O)OP(O)(O)=S)[C@@H](O)[C@H]1O` [APCPP-γ-S, adenosine 5′-[Pγ-thio]-α,β-methylenetriphosphate], the “reduction of cell viability” value (PC12 cells; 1000 μM) is reported as 25%, the viable cells (PC12 cells; 1000 μM) is reported as 75% and the “not toxic up to (concentration)” value (PC12 cells; 24 h) is reported as “up to 100 μM”. The “no activity at the P2Y1 receptor up to (concentration)” value (human P2Y1-R) was “up to 10 μM”, the EC50 (human P2Y1-R) was greater than 10 µM and the “dH (particle size) of Aβ40-Cu^2+ after chelator” value (Aβ40-Cu^2+ aggregates; aggregate alone 1836 nm, 25 μM Aβ40-Cu^2+, pH 6.6) was 64 nm.
In the case of “di-adenosine-5′,5″-tetrathiobisphosphonate”, the “stability under air-oxidizing conditions” value ([1]; open NMR tube, 3 days) is reported as “highly stable” and the stability [1] is reported as “identical to that of adenosine 5′-tetrathiobisphosphonate”.
